Molecular target: PD-1/PD-L1 interaction (PD-1-Ig / PD-L1-His) (Homo sapiens (Human), UniProt Q9NZQ7)
Experiment: PD-1/PD-L1 Homogenous Time-Resolved Fluorescence (HTRF) binding assay
Details: PD-1/PD-L1 HTRF binding assay; numeric value; read-out: Range or IC50
Summary of the method: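 Human PD-L1-His (10 nM final) was pre-incubated with inhibitor for 15 min, then PD-1-Ig (20 nM final) was added for a further 15 min in dPBS with 0.1% BSA and 0.05% Tween-20. Binding was detected by HTRF using Eu-cryptate anti-Ig (1 nM) and APC anti-His (20 nM).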

PD-1/PD-L1 interaction (PD-1-Ig / PD-L1-His), sequence (Q9NZQ7 other isoform, or with tags, fused parts or gaps): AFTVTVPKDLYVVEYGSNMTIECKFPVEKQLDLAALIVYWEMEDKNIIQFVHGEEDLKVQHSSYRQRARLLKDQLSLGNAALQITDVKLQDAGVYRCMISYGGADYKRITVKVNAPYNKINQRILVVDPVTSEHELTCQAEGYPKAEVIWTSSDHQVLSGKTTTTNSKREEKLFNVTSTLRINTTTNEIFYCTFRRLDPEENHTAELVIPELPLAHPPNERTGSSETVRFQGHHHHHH

| IC50 [nM] | SMILES |
| --- | --- |
| 50 | Cc1c(COc2cc(OCc3cncc(C#N)c3)c(CN[C@@H](Cc3cccnc3)C(=O)O)cc2Cl)cccc1-c1ccc2c(c1)OCCO2 [Example 2010, (S)-2-((5-chloro-2-((5-cyanopyridin-3-yl)methoxy)-4-((3-(2,3-dihydrobenzo[b][1,4]dioxin-6-yl)-2-methylbenzyl)oxy)benzyl)amino)-3-(pyridin-3-yl)propanoic acid] |
| 4.55 | Cc1c(COc2ccc(CN[C@H](CO)C(=O)O)c(OCc3cccc(C#N)c3)c2)cccc1-c1ccccc1 [Example 1016, (R)-2-((2-((3-cyanobenzyl)oxy)-4-((2-methyl-[1,1′-biphenyl]-3-yl)methoxy)benzyl)amino)-3-hydroxypropanoic acid] |
| 986 | CC(=O)NCCNCc1ccc(OCc2cccc(-c3ccccc3)c2C)cc1OCc1ccccc1[N+](=O)[O-] [Example 1057, N-(2-((4-((2-methyl-[1,1′-biphenyl]-3-yl)methoxy)-2-((2-nitrobenzyl)oxy)benzyl)amino)ethyl)acetamide] |

Same assay, conditions: PD-1/PD-L1 HTRF binding assay; value given as range class; read-out: Range or IC50

| IC50 [nM] | SMILES |
| --- | --- |
| 0.6 to 10 | CCc1cc(CNCCNC(C)=O)c(OCc2cccc(C#N)c2)cc1OCc1cccc(-c2ccc3c(c2)OCCO3)c1C [Example 1289, N-(2-(2-(3-cyanobenzyloxy)-4-(3-(2,3-dihydrobenzo[b][1,4]dioxin-6-yl)-2-methylbenzyloxy)-5-ethylbenzylamino)ethyl)acetamide] |
| 100 to 20000 | CC(=O)NCCNCc1ccc(OCc2cccc(-c3ccccc3)c2C)cc1OCCCO [Example 1035, N-(2-((2-(3-hydroxypropoxy)-4-((2-methyl-[1,1′-biphenyl]-3-yl)methoxy)benzyl)amino)ethyl)acetamide] |
| 10 to 100 | Cc1c(COc2cc(OCc3cccc(C#N)c3)c(CN3CCSC[C@@H]3C(=O)O)cc2Cl)cccc1-c1ccc2c(c1)OCCO2 [Example 1222, (S)-4-(5-chloro-2-((3-cyanobenzyl)oxy)-4-((3-(2,3-dihydrobenzo[b][1,4]dioxin-6-yl)-2-methylbenzyl)oxy)benzyl)thiomorpholine-3-carboxylic acid] |
| 10 to 100 | Cc1c(COc2cc(OCc3cccc(C#N)c3)c(CNC(Cc3c[nH]c4ncccc34)C(=O)O)cc2Cl)cccc1-c1ccc2c(c1)OCCO2 (stereo not drawn) [Example 1185, 2-((5-chloro-2-((3-cyanobenzyl)oxy)-4-((3-(2,3-dihydrobenzo[b][1,4]dioxin-6-yl)-2-methylbenzyl)oxy)benzyl)amino)-3-(1H-pyrrolo[2,3-b]pyridin-3-yl)propanoic acid] |
| 10 to 100 | Cc1c(COc2cc(OCc3cccc(C#N)c3)c(CN3C[C@H](F)C[C@H]3C(=O)O)cc2Cl)cccc1-c1ccc2c(c1)OCCO2 [Example 1215, (2S,4R)-1-(5-chloro-2-((3-cyanobenzyl)oxy)-4-((3-(2,3-dihydrobenzo[b][1,4]dioxin-6-yl)-2-methylbenzyl)oxy)benzyl)-4-fluoropyrrolidine-2-carboxylic acid] |
| 0.6 to 10 | Cc1c(COc2cc(OCc3cncc(C(=O)O)c3)c(CN[C@@](C)(CO)C(=O)O)cc2Cl)cccc1-c1ccc2c(c1)OCCO2 [Example 2001, (S)-5-((2-(((2-carboxy-1-hydroxypropan-2-yl)amino)methyl)-4-chloro-5-((3-(2,3-dihydrobenzo[b][1,4]dioxin-6-yl)-2-methylbenzyl)oxy)phenoxy)methyl)nicotinic acid] |
| 0.6 to 10 | Cc1c(COc2cc(OCc3cncc(C#N)c3)c(CN[C@@](C)(CO)C(=O)O)cc2Br)cccc1-c1ccc2c(c1)OCCO2 [Example 1321, (S)-2-(5-bromo-2-((5-cyanopyridin-3-yl)methoxy)-4-(3-(2,3-dihydrobenzo[b][1,4]dioxin-6-yl)-2-methylbenzyloxy)benzylamino)-3-hydroxy-2-methylpropanoic acid] |
| 0.6 to 10 | Cc1c(COc2cc(OCc3cccc(C#N)c3)c(CN[C@@H](C(=O)O)[C@@H](C)O)cc2Cl)cccc1-c1ccc2c(c1)OCCO2 [Example 1163, (2R,3R)-2-((5-chloro-2-((3-cyanobenzyl)oxy)-4-((3-(2,3-dihydrobenzo[b][1,4]dioxin-6-yl)-2-methylbenzyl)oxy)benzyl)amino)-3-hydroxybutanoic acid] |
| 0.6 to 10 | Cc1c(COc2cc(OCc3cncc(C#N)c3)c(CN[C@@H](CCC(=O)O)C(=O)O)cc2Cl)cccc1-c1ccc2c(c1)OCCO2 [Example 2012, (S)-2-((5-chloro-2-((5-cyanopyridin-3-yl)methoxy)-4-((3-(2,3-dihydrobenzo[b][1,4]dioxin-6-yl)-2-methylbenzyl)oxy)benzyl)amino)pentanedioic acid] |
| 0.6 to 10 | CC(=O)NCCNCc1cc(Br)c(OCc2cccc(-c3ccc4c(c3)OCCO4)c2C)cc1OCc1cccc(C#N)c1 [Example 1299, N-(2-((5-bromo-2-((3-cyanobenzyl)oxy)-4-((3-(2,3-dihydrobenzo[b][1,4]dioxin-6-yl)-2-methylbenzyl)oxy)benzyl)amino)ethyl)acetamide] |
| 10 to 100 | CC(=O)NCCNCc1ccc(OCc2cccc(-c3ccc4c(c3)OCCO4)c2C)cc1OCc1cc(C#N)ccn1 [Example 1130, N-(2-(2-((4-cyanopyridin-2-yl)methoxy)-4-(3-(2,3-dihydrobenzo[b][1,4]dioxin-6-yl)-2-methylbenzyloxy)benzylamino)ethyl)acetamide] |
| 0.6 to 10 | Cc1cc(CN[C@@H](CO)C(=O)O)c(OCc2ccc(F)c(C#N)c2)cc1OCc1cccc(-c2ccc3c(c2)OCCO3)c1C [Example 1274, (S)-2-((2-((3-cyano-4-fluorobenzyl)oxy)-4-((3-(2,3-dihydrobenzo[b][1,4]dioxin-6-yl)-2-methylbenzyl)oxy)-5-methylbenzyl)amino)-3-hydroxypropanoic acid] |
| 100 to 20000 | Cc1c(COc2ccc(CN[C@H](CO)C(=O)O)c(OCc3cccc(C#N)c3)c2Cl)cccc1-c1ccccc1 [Example 1231, (R)-2-((3-chloro-2-((3-cyanobenzyl)oxy)-4-((2-methyl-[1,1′-biphenyl]-3-yl)methoxy)benzyl)amino)-3-hydroxypropanoic acid] |
| 0.6 to 10 | Cc1c(COc2cc(OCc3ccnc(C(=O)N(C)C)c3)c(CN[C@@](C)(CO)C(=O)O)cc2Cl)cccc1-c1ccc2c(c1)OCCO2 [Example 3018, (S)-2-((5-chloro-4-((3-(2,3-dihydrobenzo[b][1,4]dioxin-6-yl)-2-methylbenzyl)oxy)-2-((2-(dimethylcarbamoyl)pyridin-4-yl)methoxy)benzyl)amino)-3-hydroxy-2-methylpropanoic acid] |
| 100 to 20000 | CC(=O)NCCNCc1ccc(OCc2cccc(-c3ccccc3)c2C)cc1OCc1ccccc1C#N [Example 1055, N-(2-((2-((2-cyanobenzyl)oxy)-4-((2-methyl-[1,1′-biphenyl]-3-yl)methoxy)benzyl)amino)ethyl)acetamide] |
| 0.6 to 10 | Cc1cc(CN2CCCC[C@H]2C(=O)O)c(OCc2cncc(C#N)c2)cc1OCc1cccc(-c2ccc3c(c2)OCCO3)c1C#N [Example 1309, (S)-1-(4-(2-cyano-3-(2,3-dihydrobenzo[b][1,4]dioxin-6-yl)benzyloxy)-2-((5-cyanopyridin-3-yl)methoxy)-5-methylbenzyl)piperidine-2-carboxylic acid] |
| 100 to 20000 | CC(=O)NCCNCc1ccc(OCc2cccc(-c3ccccc3)c2C)cc1OCc1cccc(Cl)c1 [Example 1054, N-(2-((2-((3-chlorobenzyl)oxy)-4-((2-methyl-[1,1′-biphenyl]-3-yl)methoxy)benzyl)amino)ethyl)acetamide] |
| 0.6 to 10 | Cc1c(COc2ccc(CN[C@](C)(CO)C(=O)O)c(OCc3cccc(C#N)c3)c2)cccc1-c1ccccc1 [Example 1023, (R)-2-((2-((3-cyanobenzyl)oxy)-4-((2-methyl-[1,1′-biphenyl]-3-yl)methoxy)benzyl)amino)-3-hydroxy-2-methylpropanoic acid] |
| 100 to 20000 | CC(=O)NCCNCc1ccc(OCc2cccc(-c3ccccc3)c2C)cc1OCc1ccc(Cl)c(Cl)c1 [Example 1069, N-(2-((2-((3,4-dichlorobenzyl)oxy)-4-((2-methyl-[1,1′-biphenyl]-3-yl)methoxy)benzyl)amino)ethyl)acetamide] |
| 0.6 to 10 | Cc1c(COc2ccc(CN[C@](C)(CO)C(=O)O)c(OCc3ccc(F)c(C#N)c3)c2)cccc1-c1ccccc1 [Example 1333, (R)-2-((2-((3-cyano-4-fluorobenzyl)oxy)-4-((2-methyl-[1,1′-biphenyl]-3-yl)methoxy)benzyl)amino)-3-hydroxy-2-methylpropanoic acid] |
| 0.6 to 10 | Cc1c(COc2cc(OCc3cncc(C#N)c3)c(CN3CCCC[C@@H]3C(=O)O)cc2Br)cccc1-c1ccc2c(c1)OCCO2 [Example 1323, (R)-1-(5-bromo-2-((5-cyanopyridin-3-yl)methoxy)-4-(3-(2,3-dihydrobenzo[b][1,4]dioxin-6-yl)-2-methylbenzyloxy)benzyl)piperidine-2-carboxylic acid] |
| 0.6 to 10 | COCC(NCc1cc(Cl)c(OCc2cccc(-c3ccc4c(c3)OCCO4)c2C)cc1OCc1cccc(C#N)c1)C(=O)O (stereo not drawn) [Example 1184, 2-((5-chloro-2-((3-cyanobenzyl)oxy)-4-((3-(2,3-dihydrobenzo[b][1,4]dioxin-6-yl)-2-methylbenzyl)oxy)benzyl)amino)-3-methoxypropanoic acid] |
| 100 to 20000 | CC(=O)NCCNCc1ccc(OCc2cccc(-c3ccccc3)c2C)cc1OCc1ccccc1Cl [Example 1053, N-(2-((2-((2-chlorobenzyl)oxy)-4-((2-methyl-[1,1′-biphenyl]-3-yl)methoxy)benzyl)amino)ethyl)acetamide] |
| 10 to 100 | Cc1c(COc2cc(OCc3cccc(C#N)c3)c(CN3CCN(C)CC3C(=O)O)cc2Cl)cccc1-c1ccc2c(c1)OCCO2 (stereo not drawn) [Example 1224, 1-(5-chloro-2-((3-cyanobenzyl)oxy)-4-((3-(2,3-dihydrobenzo[b][1,4]dioxin-6-yl)-2-methylbenzyl)oxy)benzyl)-4-methylpiperazine-2-carboxylic acid] |

Source: US9850225B2, “Compounds useful as immunomodulators” (BRISTOL-MYERS SQUIBB COMPANY, priority 2014, dated 2017)
